According to patent publication US20230113539A1, “Traditional Chinese medicine for dispersing lung qi and detoxicating” (priority 2020, published 2023):
Like-named read-outs stand apart in the source and are kept apart here.

Assays:
[1] = tested on: inflammatory factors IL-6, IL-10, TNF-α, INF-γ in lung tissue; experiment: Inflammatory factor content in lung tissue (ELISA), same mouse model; assay type: in vivo, BALB/c mice
From the text: (§1) 90 Balb/c mice are taken, SPF-grade, half male and half female, and the body weight is 10-12 g. They are randomly divided into a normal control group, a 229E infection group, a cold-damp control group, a disease-syndrome combination model group of epidemic viruses attacking lungs in mice (hereinafter referred to as an epidemic virus attacking lung model group), a chloroquine phosphate positive drug group, and an interferon α2b positive drug group, and high, medium and low dosage groups of the traditional Chinese medicine granules of the present invention, there are 10 mice in each group. Except for the normal control group and the 229E infection group, the other mice are continuously placed in an artificial climate box with a relative humidity of 90±3%, no wind, and a temperature of 4±2° C. every day, and are taken out after 4 hours of stimulation for 7 consecutive days.
(§2) Except for the normal control group and the cold-damp control group, the other mice are infected with 100 TCID50HCOV-229E virus droplets nasally at 50 μL/mice after mild anesthesia with ether on the 5-th and 6-th days of cold-damp stimulation. The administration of each administration group starts on the day of the first infection, and each dosage group of the traditional Chinese medicine granules of the present invention and the chloroquine phosphate positive drug group are administered by gavage at 0.2 ml/10 g; the normal control group, the cold-damp control group, the 229E infection group, the epidemic virus attacking lung model group are given with normal saline under the same conditions; the interferon α2b positive drug group is inhaled with the original drug solution by atomization, and each time is 20 min. It is administered once a day for 3 consecutive days. On the 4-th day of the infection, autopsy is performed after being weighed, and the following indicators are observed and detected.
(§3) 2.4.4 Detection of Gastrin (GAS), Motilin (MTL) in Mouse Serum and Inflammatory Factor in Lung Tissue (ELISA Method)
Lung tissue homogenate sample: after weighing the lung tissue from the mouse, the mouse lung tissue is collected and stored at […]. After weighing 50 mg of the lung tissue and adding 500 μL of normal saline, the tissue is homogenized with an ultrasonic cell disruptor, and centrifuged at […] at 1000 xg for 10 minutes with a lower-temperature high-speed centrifuge. After the supernatant is absorbed, it is separately packaged, and stored in the −80° C. refrigerator for later use. Repeated freezing and thawing is avoided. During the detection, it is operated according to the kit instructions, and the microplate reader detects each index at 450 nm of the absorbance.

[2] = tested on: peripheral blood T lymphocyte subset and B lymphocyte; experiment: Flow cytometry of peripheral blood T lymphocyte subset and B lymphocyte proportion, same mouse model; assay type: in vivo, BALB/c mice
HCoV-229E nucleic acid = experiment: Nucleic acid detection (viral load) in lung tissue (RT-PCR), same mouse model; assay type: in vivo, BALB/c mice
[3] = tested on: human coronavirus (HCoV-229E); assay type: in vivo
GAS, MTL in mouse serum = experiment: Gastrin (GAS) and motilin (MTL) in mouse serum (ELISA), same mouse model; assay type: in vivo, BALB/c mice
From the text: as §1, §2, §3
After dissection, mouse […] is placed at a room temperature for 30 min, and centrifuged at 3000×g for 10 min, and a supernatant is absorbed into a new eppendorf (ep) tube and stored at −20° C. During the detection, it is operated according to kit instructions, and a microplate reader detects each index at 450 nm of the absorbance.

[4] = chloroquine phosphate Id: 0.18 g/kg/d, 2~3 d: 0.09 g/kg/d
[5] = chloroquine phosphate Id: 0.18 g/kg/d, 2~3: 0.09 g/kg/d
[6] = interferon α2b 300 million IU, 20 min

Compound: CCN(CC)CCCC(C)Nc1ccnc2cc(Cl)ccc12 (centres unmarked) [Chloroquine phosphate]
- Inflammatory factor content in lung tissue IL-6 [1, 4]: 149.98 ± 29.37 pg/mL
- Inflammatory factor content in lung tissue IL-10 [1, 4]: 52.54 ± 29.40 pg/mL
- Inflammatory factor content in lung tissue INF-γ [1, 4]: 2.77 ± 3.48 pg/mL
- Inflammatory factor content in lung tissue TNF-α [1, 4]: 38.33 ± 9.62 pg/mL
- CD4+/CD8+ (peripheral blood) [2, 4]: 1.65 ± 0.23
- Percentage of immune cells in peripheral blood B cell [2, 4]: 15.72 ± 2.24%
- Percentage of immune cells in peripheral blood CD4+T cell [2, 4]: 32.47 ± 4.65%
- Percentage of immune cells in peripheral blood CD8+T cell [2, 4]: 20.03 ± 3.68 %
- Viral load (lung tissue) (HCoV-229E nucleic acid; [4]): 56027.66 ± 31638.92
- Inhibition rate % (of lung index) ([3]; chloroquine phosphate Id: 0.18 g/kg/d, 2-3: 0.09 g/kg/d): 9.82%
- Lung index (Lung weight/100 g body weight) ([3]; chloroquine phosphate Id: 0.18 g/kg/d, 2-3: 0.09 g/kg/d, gavage): 0.85 ± 0.11
- Factor content in serum GAS (GAS, MTL in mouse serum; [5]): 8.75 ± 1.41 pg/mL
- Factor content in serum MTL (GAS, MTL in mouse serum; [5]): 105.69 ± 16.85 pg/mL

Compound: Interferon α2b
- Inflammatory factor content in lung tissue TNF-α [1, 6]: 33.86 ± 8.72 pg/mL
- Inflammatory factor content in lung tissue IL-6 ([1]; interferon α2b, 20 min): 199.07 ± 38.37 pg/mL
- Inflammatory factor content in lung tissue IL-10 ([1]; interferon α2b, 20 min): 102.25 ± 58.14 pg/mL
- Inflammatory factor content in lung tissue INF-γ ([1]; interferon α2b, 20 min): 4.20 ± 3.39 pg/mL
- CD4+/CD8+ (peripheral blood) [2, 6]: 1.92 ± 0.63
- Percentage of immune cells in peripheral blood CD4+T cell [2, 6]: 35.17 ± 4.24%
- Percentage of immune cells in peripheral blood CD8+T cell [2, 6]: 19.68 ± 4.53 %
- Percentage of immune cells in peripheral blood B cell ([2]; interferon α2b, 20 min): 6.40 ± 0.98%
- Viral load (lung tissue) (HCoV-229E nucleic acid; [6]): 63758.38 ± 17530.19
- Inhibition rate % (of lung index) ([3]; interferon α2b 3 million IU, 20 min): 40.38%
- Lung index (Lung weight/100 g body weight) ([3]; interferon α2b 3 million IU, 20 min, atomization inhalation): 0.79 ± 0.11
- Factor content in serum GAS (GAS, MTL in mouse serum; [6]): 8.94 ± 1.07 pg/mL
- Factor content in serum MTL (GAS, MTL in mouse serum; [6]): 115.43 ± 7.90 pg/mL
